The target of the experiment is T1, human GPR119 (Homo sapiens, UniProt Q8TDV5).
T1 construct: expression vector for human GPR119 cDNA (Acc. No. NP_848566); expressed in transfected cells
T1 sequence (Q8TDV5 1-335): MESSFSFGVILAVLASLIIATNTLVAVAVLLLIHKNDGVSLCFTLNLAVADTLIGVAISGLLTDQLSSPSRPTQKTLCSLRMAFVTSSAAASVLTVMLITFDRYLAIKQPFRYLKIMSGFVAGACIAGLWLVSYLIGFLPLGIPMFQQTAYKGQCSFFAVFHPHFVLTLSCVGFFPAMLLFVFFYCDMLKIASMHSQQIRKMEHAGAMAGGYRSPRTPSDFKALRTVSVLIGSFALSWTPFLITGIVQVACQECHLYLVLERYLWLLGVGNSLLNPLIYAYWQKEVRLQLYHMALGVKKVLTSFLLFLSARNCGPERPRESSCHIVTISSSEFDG
The experiment can be described thus: AlphaScreen cAMP assay, activation of GPR119 in Min-6/hGPR119 cells. The class given is cell-based. The note with it: MIN6 cells stably transfected with human GPR119; intracellular cAMP; 45 minutes incubation at room temperature. The method, then:
The compounds of formula I according to the invention modulate the activity of the G-protein-coupled receptor GPR119. The effect of the compounds on the activation of GPR119 and on the stimulation of intracellular cAMP concentration is determined using the AlphaScreen cAMP Assay Kit (Cat. No. #6760625R) made by PerkinElmer.
MIN6 cells [Miyazaki J et al. Endocrinology. 1990 July; 127(1):126-32] are stably transfected with an expression vector for human GPR119 cDNA (Acc. No. NP_848566). Min-6/hGPR119 cells are cultured in DMEM, 10% FBS, 500 μM β-mercaptoethanol, 0.3 mg/mL Geniticin, 2 mM GlutaMAX at 37° C. 5% CO2. For the assay, the cells are seeded in Optiplates (white, 384-well, 160 W— barcoded, TC, sterile with lid, Cat. No. #6007688 (Perkin Elmer); 10000 cells/well; 50 μl). The plates covered with lids are then incubated for 24 hours at 37° C./5% CO2. After the medium is aspirated from the wells completely, 10 μl of the test compound are added, the compounds are diluted using stimulating buffer (140 mM NaCl, 3.6 mM KCl, 0.5 mM NaH2PO4, 0.5 mM MgSO4, 1.5 mM CaCl2, 10 mM Hepes, 5 mM NaHCO3; pH 7.4. 0.5 mM IBMX and 0.1% BSA, the final DMSO concentration is 1%). After 45 minutes incubation at room temperature (approx. 20° C.), the cAMP concentrations are determined using the AlphaScreen cAMP Assay Kit (Cat. No. #6760625R from PerkinElmer).

Usually EC50 stands for the concentration that produces a half-maximal response. A lower EC50 goes with a more potent agent.

In turn, `CC1(c2nc(N3CCC([C@@H]4Cc5cc(C6=CCN(S(C)(=O)=O)CC6)ncc5O4)CC3)no2)CC1` (single isomer, unassigned) [Example 57] came in with an EC50 of 36 nM.
In the case of `CS(=O)(=O)N1CC=C(c2cc3c(cn2)O[C@H](C2CCN(c4ncc(C(F)(F)F)cn4)CC2)C3)CC1` (single isomer, unassigned) [Example 52] it was 19 nM; in that of `CC(C)(C)c1nc(N2CCC(C3Cc4cc(C5=CCN(S(C)(=O)=O)CC5)ncc4O3)CC2)no1` (stereo not drawn) [Example 39], 8 nM.
In the case of `CCCc1nc(N2CCC(C3Cc4cc(-c5ccc(CS(C)(=O)=O)cc5)ncc4O3)CC2)no1` (stereo not drawn) [Example 17, 5-(4-Methanesulfonylmethyl-phenyl)-2-[1-(5-propyl-[1,2,4]oxadiazol-3-yl)-piperidin-4-yl]-2,3-dihydro-furo[2,3-c]pyridine] it was 21 nM.
In the case of `CC(C)c1noc(N2CCC([C@]3(C)Cc4cc(C5=CCN(S(C)(=O)=O)CC5)ncc4O3)CC2)n1` (single isomer, unassigned) [Example 42] it was 11 nM.
In turn, `COc1cnc(N2CCC([C@H]3Cc4cc(-c5ccc(S(C)(=O)=O)cc5)ncc4O3)CC2)nc1` (single isomer, unassigned) [Example 94] yielded an EC50 of 18 nM.
For `CCc1cnc(N2CCC([C@]3(C)Cc4cc(C5=CCN(S(C)(=O)=O)CC5)ncc4O3)CC2)nc1` (single isomer, unassigned) [Example 36] the value was 5 nM; for `CCCc1noc(N2CCC(C3Cc4cc(-c5ccc(S(C)(=O)=O)cc5)ncc4O3)CC2)n1` (stereo not drawn) [Example 7, 5-(4-Methanesulfonyl-phenyl)-2-[1-(3-propyl-[1,2,4]oxadiazol-5-yl)-piperidin-4-yl]-2,3-dihydro-furo[2,3-c]pyridine], 35 nM.
In the case of `CCCc1nc(N2CCC([C@@H]3Cc4cc(C5=CCN(S(C)(=O)=O)CC5)ncc4O3)CC2)no1` (single isomer, unassigned) [Example 49] it was 25 nM; in that of `CC(C)c1nc(N2CCC([C@]3(C)Cc4cc(C5=CCN(S(C)(=O)=O)CC5)ncc4O3)CC2)no1` (single isomer, unassigned) [Example 43], 9 nM.
With `CS(=O)(=O)N1CC=C(c2cc3c(cn2)O[C@@H](C2CCN(c4ncc(C5CC5)cn4)CC2)C3)CC1` (single isomer, unassigned) [Example 91], a half-maximal effect (EC50) was put at 3 nM.
Compound `CCCc1noc(N2CCC(C3Cc4cc(-c5ccc(S(C)(=O)=O)cc5)ccc4O3)CC2)n1` (stereo not drawn) [Example 4, 4-[5-(4-Methanesulfonyl-phenyl)-2,3-dihydro-benzofuran-2-yl]-1-(3-propyl-[1,2,4]oxadiazol-5-yl)-piperidine] returned an EC50 of 52 nM.
`CCCc1nc(N2CCC(C3Cc4cc(-c5ccc(S(C)(=O)=O)cc5)ncc4O3)CC2)no1` (stereo not drawn) [Example 9, 5-(4-Methanesulfonyl-phenyl)-2-[1-(5-propyl-[1,2,4]oxadiazol-3-yl)-piperidin-4-yl]-2,3-dihydro-furo[2,3-c]pyridine] gave an EC50 of 12 nM.
`CCc1cnc(N2CCC([C@]3(C)Cc4cc(-c5ccc(S(C)(=O)=O)cc5)ncc4O3)CC2)nc1` (single isomer, unassigned) [Example 28] displayed an EC50 of 22 nM.
`CCCc1nc(N2CCC(C3Cc4cc(C5=CCN(S(C)(=O)=O)CC5)ncc4O3)CC2)no1` (stereo not drawn) [Example 23, 5-(1-Methanesulfonyl-1,2,3,6-tetrahydro-pyridin-4-yl)-2-[1-(5-propyl-[1,2,4]oxadiazol-3-yl)-piperidin-4-yl]-2,3-dihydro-furo[2,3-c]pyridine] had an EC50 of 7 nM.
For `Cc1cnc(N2CCC(C3Cc4cc(-c5ccc(S(C)(=O)=O)cc5)ncc4O3)CC2)cn1` (stereo not drawn) [Example 10, 5-(4-Methanesulfonyl-phenyl)-2-[1-(5-methyl-pyrazin-2-yl)-piperidin-4-yl]-2,3-dihydro-furo[2,3c]pyridine] the value was 152 nM; for `CS(=O)(=O)c1ccc(-c2cc3c(cn2)O[C@@H](C2CCN(c4ncc(C5CC5)cn4)CC2)C3)cc1` (single isomer, unassigned) [Example 93], 10 nM; for `CS(=O)(=O)c1ccc(-c2cc3c(cn2)O[C@H](C2CCN(c4ncc(Cl)cn4)CC2)C3)cc1` (single isomer, unassigned) [Example 90], 60 nM.

Source of the values: patent US8778926B2, “Compounds, pharmaceutical compositions and uses thereof” (Boehringer Ingelheim International GmbH, priority 2011, dated 2014).
